Tests used:
[1] = Solubility of dolutegravir in types of potable water (FIG. 1); format: physicochemical; details: water with no ions present (purified water) vs other types of potable water
Description: The solubility of dolutegravir is affected by the use of different types of potable water, for example purified water, tap water and different brands of bottled water (see FIG. 1). The reason for this difference in solubility is believed to be due to the presence of ions typically found in water. When water with no ions present (purified water) is used to disperse dolutegravir, the solubility of dolutegravir is increased and a significant bitter taste may be observed.

[2] = Dolutegravir solubility in the presence of monovalent and divalent ions; format: physicochemical; details: thermodynamic from solid, 20 mg in 12 ml
Method: Solubility was determined by dissolving 20 mg of dolutegravir into 12 ml of water containing the specified ion (see Table 1) at a concentration of 500 ppm.

solubility of dolutegravir [1]: increased
solubility ([2]; aqueous buffer, water containing calcium ion 500 ppm): 30 µg/mL
solubility ([2]; aqueous buffer, water containing magnesium ion 500 ppm): 210 µg/mL
solubility ([2]; aqueous buffer, water containing potassium ion 500 ppm): 780 µg/mL
solubility ([2]; aqueous buffer, water containing sodium ion 500 ppm): 460 µg/mL
solubility ([2]; no ion (purified water)): 1200 µg/mL
SMILES: C[C@@H]1CCO[C@H]2Cn3cc(C(=O)NCc4ccc(F)cc4F)c(=O)c(O)c3C(=O)N12 [Dolutegravir, (4RX,12aS)-N-[(2,4-difluorophenyl)methyl]-7-hydroxy-4-methyl-6,8-dioxo-3,4,12,12a-tetrahydro-2H-pyrido[5,6]pyrazino[2,6-b][1,3]oxazine-9-carboxamide]
